# According to ChEMBL document CHEMBL1201861, “Genomics of Drug Sensitity in Cancer screening data, Wellcome Trust Sanger Institute”:
# Assays:
# Test in all cases: cells
# HL-60 = assay type: functional, cell-based, Homo sapiens; settings: Homo sapiens, HL-60;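 also: growth inhibition of human HL-60 cells, read out with a cell viability assay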
# Description: SANGER: Inhibition of human HL-60 cell growth in a cell viability assay.
# EW-16 = assay type: functional, cell-based, Homo sapiens; settings: Homo sapiens, EW-16;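 also: growth inhibition of human EW-16 cells, read out as cell viability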
# Description: SANGER: Inhibition of human EW-16 cell growth in a cell viability assay.
# LS-411N = assay type: functional, cell-based, Homo sapiens; settings: Homo sapiens, LS-411N
# LB771-HNC = assay type: functional, cell-based; settings: Homo sapiens;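 also: growth inhibition of LB771-HNC human cells, read out with a cell viability assay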
# Description: SANGER: Inhibition of human LB771-HNC cell growth in a cell viability assay.
# NCI-H1155 = assay type: functional, cell-based, Homo sapiens; settings: Homo sapiens, NCI-H1155;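 also: cell growth inhibition measured by a viability assay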
# Description: SANGER: Inhibition of human NCI-H1155 cell growth in a cell viability assay.
# LC-2-ad = assay type: functional, cell-based, Homo sapiens; settings: Homo sapiens, LC-2-ad;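 also: growth inhibition of human LC-2-ad cells, read out with a cell viability assay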
# Description: SANGER: Inhibition of human LC-2-ad cell growth in a cell viability assay.
# J-RT3-T3-5 = assay type: functional, cell-based, Homo sapiens; settings: Homo sapiens, J-RT3-T3-5;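 also: cell viability assay measuring growth inhibition of human J-RT3-T3-5 cells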
# Description: SANGER: Inhibition of human J-RT3-T3-5 cell growth in a cell viability assay.
# NCI-H226 = assay type: functional, cell-based, Homo sapiens; settings: Homo sapiens, NCI-H226;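 also: cell viability read-out used to gauge growth inhibition of the cells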
# Description: SANGER: Inhibition of human NCI-H226 cell growth in a cell viability assay.
# HT = assay type: functional, cell-based, Homo sapiens; settings: Homo sapiens, HT
# Description: SANGER: Inhibition of human HT cell growth in a cell viability assay.
# SCH = assay type: functional, cell-based, Homo sapiens; settings: Homo sapiens, SCH;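 also: growth inhibition of human SCH cells, read out in a cell viability assay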
# Description: SANGER: Inhibition of human SCH cell growth in a cell viability assay.
# RXF 393 = assay type: functional, cell-based, Homo sapiens; settings: Homo sapiens, RXF 393;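 also: growth inhibition of human RXF 393 cells, read out with a cell viability assay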
# Description: SANGER: Inhibition of human RXF393 cell growth in a cell viability assay.
# SK-PN-DW = assay type: functional, cell-based, Homo sapiens; settings: Homo sapiens, SK-PN-DW;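 also: growth inhibition measured with a viability assay on these cells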
# Description: SANGER: Inhibition of human SK-PN-DW cell growth in a cell viability assay.
# C32 = assay type: functional, cell-based; settings: Homo sapiens;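 also: cell viability assay, with IC50 reflecting inhibition of C32 cell growth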
# Description: SANGER: Inhibition of human C32 cell growth in a cell viability assay.
# KARPAS-45 = assay type: functional, cell-based, Homo sapiens; settings: Homo sapiens, KARPAS-45;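 also: inhibition of cell line growth, read out through a viability assay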
# Description: SANGER: Inhibition of human KARPAS-45 cell growth in a cell viability assay.
# TE-12 = assay type: functional, cell-based, Homo sapiens; settings: Homo sapiens, TE-12;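 also: growth inhibition of TE-12 cells, read out by a cell viability assay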
# Description: SANGER: Inhibition of human TE-12 cell growth in a cell viability assay.
# KY821 = assay type: functional, cell-based, Homo sapiens; settings: Homo sapiens, KY821;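 also: growth inhibition of human KY821 cells, read out by a cell viability assay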
# Description: SANGER: Inhibition of human KY821 cell growth in a cell viability assay.
# UACC-257 = assay type: functional, cell-based, Homo sapiens; settings: Homo sapiens, UACC-257
# Description: SANGER: Inhibition of human UACC-257 cell growth in a cell viability assay.
# TGBC24TKB = assay type: functional, cell-based; settings: Homo sapiens;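 also: growth inhibition of human TGBC24TKB cells, read out with a cell viability assay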
# Description: SANGER: Inhibition of human TGBC24TKB cell growth in a cell viability assay.
# GI-1 = assay type: functional, cell-based, Homo sapiens; settings: Homo sapiens, GI-1;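 also: growth inhibition of human GI-1 cells, measured with a cell viability readout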
# Description: SANGER: Inhibition of human GI-1 cell growth in a cell viability assay.
# ES3 = assay type: functional, cell-based, Homo sapiens; settings: Homo sapiens, ES3;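 also: growth inhibition of ES3 cells, read out with a cell viability assay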
# Description: SANGER: Inhibition of human ES3 cell growth in a cell viability assay.
# LU-134-A = assay type: functional, cell-based, Homo sapiens; settings: Homo sapiens, LU-134-A
# Description: SANGER: Inhibition of human LU-134-A cell growth in a cell viability assay.
# A4-Fuk = assay type: functional, cell-based, Homo sapiens; settings: Homo sapiens, A4-Fuk;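 also: growth inhibition of A4-Fuk cells, read out by a cell viability assay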
# Description: SANGER: Inhibition of human A4-Fuk cell growth in a cell viability assay.
# SW 954 = assay type: functional, cell-based, Homo sapiens; settings: Homo sapiens, SW 954;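 also: growth inhibition of SW954 human cancer cells, read out as cell viability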
# Description: SANGER: Inhibition of human SW954 cell growth in a cell viability assay.
# JVM-2 = assay type: functional, cell-based, Homo sapiens; settings: Homo sapiens, JVM-2;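 also: growth inhibition of JVM-2 cells determined by a cell viability assay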
# Description: SANGER: Inhibition of human JVM-2 cell growth in a cell viability assay.
# LNCaP-Clone-FGC = assay type: functional, cell-based, Homo sapiens; settings: Homo sapiens, LNCaP-Clone-FGC
# Description: SANGER: Inhibition of human LNCaP-Clone-FGC cell growth in a cell viability assay.
# TE-11 = assay type: functional, cell-based; settings: Homo sapiens;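 also: growth inhibition of human TE-11 cells, read out by a cell viability assay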
# Description: SANGER: Inhibition of human TE-11 cell growth in a cell viability assay.
# DU-4475 = assay type: functional, cell-based, Homo sapiens; settings: Homo sapiens, DU-4475
# Description: SANGER: Inhibition of human DU-4475 cell growth in a cell viability assay.
# KU812 cell line = assay type: functional, cell-based, Homo sapiens; settings: Homo sapiens, KU812;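 also: growth inhibition of KU812 cells, read out with a cell viability assay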
# Description: SANGER: Inhibition of human KU812 cell growth in a cell viability assay.
# CTV-1 = assay type: functional, cell-based, Homo sapiens; settings: Homo sapiens, CTV-1;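 also: growth inhibition of the cell line, read out with a cell viability assay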
# Description: SANGER: Inhibition of human CTV-1 cell growth in a cell viability assay.
# ES4 = assay type: functional, cell-based, Homo sapiens; settings: Homo sapiens, ES4;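 also: growth inhibition of human ES4 cells, read out by a cell viability assay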
# Description: SANGER: Inhibition of human ES4 cell growth in a cell viability assay.
# KURAMOCHI = assay type: functional, cell-based, Homo sapiens; settings: Homo sapiens, KURAMOCHI;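 also: growth inhibition of KURAMOCHI cells, read out with a cell viability assay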
# Description: SANGER: Inhibition of human KURAMOCHI cell growth in a cell viability assay.
# P30-OHK = assay type: functional, cell-based, Homo sapiens; settings: Homo sapiens, P30-OHK;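 also: growth inhibition of the P30-OHK cell line, read out with a cell viability assay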
# Description: SANGER: Inhibition of human P30-OHK cell growth in a cell viability assay.
# CAS-1 = assay type: functional, cell-based, Homo sapiens; settings: Homo sapiens, CAS-1;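 also: growth inhibition of CAS-1 cells, measured with a cell viability assay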
# Description: SANGER: Inhibition of human CAS-1 cell growth in a cell viability assay.
# LAMA-84 = assay type: functional, cell-based, Homo sapiens; settings: Homo sapiens, LAMA-84;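 also: growth inhibition of LAMA-84 cells, read out with a cell viability assay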
# Description: SANGER: Inhibition of human LAMA-84 cell growth in a cell viability assay.
# LAN-6 = assay type: functional, cell-based, Homo sapiens; settings: Homo sapiens, LAN-6;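 also: growth inhibition of LAN-6 cells, determined with a cell viability assay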
# Description: SANGER: Inhibition of human LAN-6 cell growth in a cell viability assay.
# NKM-1 = assay type: functional, cell-based, Homo sapiens; settings: Homo sapiens, NKM-1;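 also: growth inhibition of NKM-1 cells, read out with a cell viability assay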
# Description: SANGER: Inhibition of human NKM-1 cell growth in a cell viability assay.
# MC116 = assay type: functional, cell-based, Homo sapiens; settings: Homo sapiens, MC116;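 also: growth inhibition of MC116 cells, read out with a cell viability assay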
# Description: SANGER: Inhibition of human MC116 cell growth in a cell viability assay.
# HCC2157 = assay type: functional, cell-based, Homo sapiens; settings: Homo sapiens, HCC2157;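 also: growth inhibition of the cancer cell line, read out as cell viability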
# Description: SANGER: Inhibition of human HCC2157 cell growth in a cell viability assay.
# ACN = assay type: functional, cell-based, Homo sapiens; settings: Homo sapiens, ACN;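 also: growth inhibition of the human ACN cell line, read out via cell viability testing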
# Description: SANGER: Inhibition of human ACN cell growth in a cell viability assay.
# DBTRG-05MG = assay type: functional, cell-based; settings: Homo sapiens;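 also: cell viability assay measuring growth inhibition of human DBTRG-05MG cells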
# Description: SANGER: Inhibition of human DBTRG-05MG cell growth in a cell viability assay.
# SK-UT-1 = assay type: functional, cell-based, Homo sapiens; settings: Homo sapiens, SK-UT-1;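 also: growth inhibition of SK-UT-1 cells, measured by a cell viability assay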
# Description: SANGER: Inhibition of human SK-UT-1 cell growth in a cell viability assay.
# C-33-A = assay type: functional, cell-based; settings: Homo sapiens;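 also: cell viability assay measuring growth inhibition of C-33-A cells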
# Description: SANGER: Inhibition of human C-33-A cell growth in a cell viability assay.
# A498 = assay type: functional, cell-based, Homo sapiens; settings: Homo sapiens, A498;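 also: growth inhibition of human A498 cells, read out with a cell viability assay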
# Description: SANGER: Inhibition of human A498 cell growth in a cell viability assay.
# NB10 = assay type: functional, cell-based, Homo sapiens; settings: Homo sapiens, NB10;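 also: growth inhibition of NB10 cells, read out by a cell viability assay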
# Description: SANGER: Inhibition of human NB10 cell growth in a cell viability assay.
# A253 cell line = assay type: functional, cell-based, Homo sapiens; settings: Homo sapiens, A253;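 also: growth inhibition of A253 cells, read out with a cell viability assay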
# Description: SANGER: Inhibition of human A253 cell growth in a cell viability assay.
# DOHH-2 = assay type: functional, cell-based, Homo sapiens; settings: Homo sapiens, DOHH-2;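 also: growth inhibition of human DOHH-2 cells, read out with a cell viability assay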
# Description: SANGER: Inhibition of human DOHH-2 cell growth in a cell viability assay.
# TE-1 = assay type: functional, cell-based, Homo sapiens; settings: Homo sapiens, TE-1
# Description: SANGER: Inhibition of human TE-1 cell growth in a cell viability assay.
# HDLM-2 = assay type: functional, cell-based, Homo sapiens; settings: Homo sapiens, HDLM-2;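 also: cell viability assay measuring suppression of HDLM-2 proliferation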
# Description: SANGER: Inhibition of human HDLM-2 cell growth in a cell viability assay.
# SW756 = assay type: functional, cell-based; settings: Homo sapiens;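 also: growth inhibition of human SW756 cells, read out with a cell viability assay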
# Description: SANGER: Inhibition of human SW756 cell growth in a cell viability assay.
# EKVX = assay type: functional, cell-based, Homo sapiens; settings: Homo sapiens, EKVX;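 also: growth inhibition of human EKVX cells, read out with a cell viability assay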
# Description: SANGER: Inhibition of human EKVX cell growth in a cell viability assay.
# LB1047-RCC = assay type: functional, cell-based, Homo sapiens; settings: Homo sapiens, LB1047-RCC;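 also: inhibition of cell growth, determined with a cell viability assay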
# Description: SANGER: Inhibition of human LB1047-RCC cell growth in a cell viability assay.
smiles,measurement,setting,value
O=C1NC(=O)c2c1c(-c1ccccc1Cl)cc1[nH]c3ccc(O)cc3c21,IC50,HL-60,> 2000 nM
same,IC50,EW-16,> 2000 nM
same,IC50,LS-411N,> 2000 nM
same,IC50,LB771-HNC,> 2000 nM
same,IC50,NCI-H1155,> 2000 nM
same,IC50,LC-2-ad,> 2000 nM
same,IC50,J-RT3-T3-5,1580 nM
same,IC50,NCI-H226,> 2000 nM
same,IC50,HT,> 2000 nM
same,IC50,SCH,> 2000 nM
same,IC50,RXF 393,> 2000 nM
same,IC50,SK-PN-DW,> 2000 nM
same,IC50,C32,1530 nM
same,IC50,KARPAS-45,> 2000 nM
same,IC50,TE-12,> 2000 nM
same,IC50,KY821,> 2000 nM
same,IC50,UACC-257,> 2000 nM
same,IC50,TGBC24TKB,> 2000 nM
same,IC50,GI-1,> 2000 nM
same,IC50,ES3,> 2000 nM
same,IC50,LU-134-A,917 nM
same,IC50,A4-Fuk,> 2000 nM
same,IC50,SW 954,213 nM
same,IC50,JVM-2,> 2000 nM
same,IC50,LNCaP-Clone-FGC,> 2000 nM
same,IC50,TE-11,> 2000 nM
same,IC50,DU-4475,> 2000 nM
same,IC50,KU812 cell line,> 2000 nM
same,IC50,CTV-1,> 2000 nM
same,IC50,ES4,924 nM
same,IC50,KURAMOCHI,> 2000 nM
same,IC50,P30-OHK,1910 nM
same,IC50,CAS-1,> 2000 nM
same,IC50,LAMA-84,> 2000 nM
same,IC50,LAN-6,> 2000 nM
same,IC50,NKM-1,> 2000 nM
same,IC50,MC116,> 2000 nM
same,IC50,HCC2157,1570 nM
same,IC50,ACN,> 2000 nM
same,IC50,DBTRG-05MG,> 2000 nM
same,IC50,SK-UT-1,> 2000 nM
same,IC50,C-33-A,> 2000 nM
same,IC50,A498,> 2000 nM
same,IC50,NB10,> 2000 nM
same,IC50,A253 cell line,> 2000 nM
same,IC50,DOHH-2,> 2000 nM
same,IC50,TE-1,> 2000 nM
same,IC50,HDLM-2,> 2000 nM
NC(=O)Nc1cc(-c2cccc(F)c2)sc1C(=O)N[C@H]1CCCNC1 [AZD-7762],IC50,HL-60,774 nM
same,IC50,EW-16,538 nM
same,IC50,LS-411N,376 nM
same,IC50,LB771-HNC,559 nM
same,IC50,SW756,35.8 nM
same,IC50,NCI-H1155,739 nM
same,IC50,LC-2-ad,565 nM
same,IC50,J-RT3-T3-5,267 nM
same,IC50,EKVX,> 2000 nM
same,IC50,NCI-H226,> 2000 nM
same,IC50,HT,1870 nM
same,IC50,SCH,1330 nM
same,IC50,RXF 393,290 nM
same,IC50,SK-PN-DW,119 nM
same,IC50,C32,347 nM
same,IC50,KARPAS-45,168 nM
same,IC50,TE-12,> 2000 nM
same,IC50,KY821,214 nM
same,IC50,UACC-257,> 2000 nM
same,IC50,TGBC24TKB,165 nM
same,IC50,GI-1,196 nM
same,IC50,ES3,102 nM
same,IC50,LB1047-RCC,60.2 nM
same,IC50,LU-134-A,657 nM
same,IC50,A4-Fuk,74.9 nM
same,IC50,SW 954,401 nM
same,IC50,JVM-2,> 2000 nM
same,IC50,LNCaP-Clone-FGC,1440 nM
same,IC50,TE-11,453 nM
same,IC50,DU-4475,349 nM
same,IC50,KU812 cell line,168 nM
same,IC50,CTV-1,39 nM
same,IC50,ES4,32.5 nM
same,IC50,KURAMOCHI,> 2000 nM
same,IC50,P30-OHK,132 nM
same,IC50,CAS-1,1210 nM
same,IC50,LAMA-84,165 nM
same,IC50,LAN-6,1080 nM
same,IC50,NKM-1,< 7.81 nM
same,IC50,MC116,257 nM
same,IC50,ACN,172 nM
same,IC50,DBTRG-05MG,> 2000 nM
same,IC50,SK-UT-1,186 nM
same,IC50,C-33-A,862 nM
same,IC50,A498,1730 nM
same,IC50,NB10,591 nM
same,IC50,DOHH-2,131 nM
same,IC50,TE-1,1210 nM
same,IC50,HDLM-2,813 nM
